According to patent US10626106B2, “Substituted pyrrolidine amides I” (Gruenenthal GmbH, priority 2017, dated 2020):

target: T1, Human Glucocorticoid Receptor (hGR) (Homo sapiens, UniProt P04150); test: Human Glucocorticoid Receptor (hGR) Ligand-Binding Assay (competitive 3H-dexamethasone binding, IM9 cytosol); details: compound at 1 μM; competition with 3H-dexamethasone; cytosol of IM9 cells; read-out: % inhibition hGR at 1 μM
T1 construct: the resultant supernatant (=cytosol of IM9 cells) was centrifuged at 103,000 g for 60 minutes; host or cells: IM9 human lymphoblast cell line (cytosol fraction)
T1 sequence (P04150 1-777): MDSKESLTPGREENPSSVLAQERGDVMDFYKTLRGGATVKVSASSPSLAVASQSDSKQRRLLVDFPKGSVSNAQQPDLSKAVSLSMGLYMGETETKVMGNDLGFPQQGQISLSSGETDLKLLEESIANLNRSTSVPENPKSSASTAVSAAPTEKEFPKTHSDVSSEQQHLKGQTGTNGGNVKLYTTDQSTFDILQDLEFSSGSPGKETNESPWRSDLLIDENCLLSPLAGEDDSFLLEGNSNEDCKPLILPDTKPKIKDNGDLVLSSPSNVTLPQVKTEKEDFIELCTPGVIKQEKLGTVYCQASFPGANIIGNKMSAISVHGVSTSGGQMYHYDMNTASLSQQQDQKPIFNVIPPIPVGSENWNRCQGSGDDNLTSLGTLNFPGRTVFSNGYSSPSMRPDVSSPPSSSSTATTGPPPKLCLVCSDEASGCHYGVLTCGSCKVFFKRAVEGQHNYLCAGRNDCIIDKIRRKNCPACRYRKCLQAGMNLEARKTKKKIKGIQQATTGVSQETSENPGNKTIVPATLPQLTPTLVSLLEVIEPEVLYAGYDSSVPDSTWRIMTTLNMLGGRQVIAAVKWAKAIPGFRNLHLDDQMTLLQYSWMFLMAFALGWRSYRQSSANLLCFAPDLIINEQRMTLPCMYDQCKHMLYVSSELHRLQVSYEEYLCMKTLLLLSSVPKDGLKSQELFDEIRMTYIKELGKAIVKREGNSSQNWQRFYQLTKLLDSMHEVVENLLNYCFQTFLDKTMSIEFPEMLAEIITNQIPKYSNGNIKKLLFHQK
From the text: Human Glucocorticoid Receptor (hGR) Ligand-Binding Assay
Potential selective glucocorticoid receptor modulators of this intervention can be tested for their binding affinity at the glucocorticoid receptor using the binding assay described below.
Preferably, the glucocortitcoid receptor extracted from cytosol of IM9 cells is used for competitive radioligand binding assays to calculate the IC50 values and binding affinity (Ki value) of the compounds according to the present invention. Preferably, a fixed concentration of the radioligand 3H-dexamethasone and a range of concentrations of compounds according to the present invention (as unlabeled competitors of dexamethasone) are mixed with the extracted glucocorticoid receptor in order to measure the potency/affinity with which they compete for the binding of the radioligand. Preferably, by using competition curves the IC50 which is the concentration of competing ligand that displaces 50% of the specific binding of the radioligand is determined. Finally this IC50 value is converted to a Ki value.
The human lymphoblast cell line IM9 (ATCC, Bethesda, Md.) were cultivated in RPMI 1640 media containing 10% fetal bovine serum, penicillin (100 U/ml), streptomycin (100 μg/ml), and 2 mM L-glutamine at […] and 7% CO2 in a humidified incubator. Cells were centrifuged for 10 minutes at 1500 g and were washed in PBS and repelleted. Cell were then resuspended in homogenization buffer consisting of: 10 mM TES, 10 mM sodium molybdate, 1 mM EDTA, pH 7.4, 20 mM 2-mercaptoethanol, and 10% glycerol. Disruption of the cells was performed by nitrogen cavitation using 2×15 minutes at 600 to 750 psi nitrogen in a N2 cavitator at 0° C. The cell preparation was then centrifuged at 27,000 g for 15 minutes, and the resultant supernatant (=cytosol of IM9 cells) was centrifuged at 103,000 g for 60 minutes at 4° C. The amount of protein in the supernatant fraction was determined using a BCA assay kit and aliquots were snap frozen in a dry ice-acetone bath and stored at −70° C. Competitive binding assays were done in duplicate in homogenization buffer with a total volume of 200 μl. To this end, 1 mg of IM9 cytosol, 0.05 μCi (1.5 nM) of 3H-dexamethasone […] and compounds according to the present invention (=unlabeled competitors of dexamethasone; range of concentrations) were mixed. The reaction was stopped after incubation at 0° C. for 16 to 18 hours by the addition of 100 μl of a charcoal-dextran mixture (2% activated charcoal, 0.5% dextran in 10 mM Tris, 1 mM EDTA, pH 7.4). Another incubation step at 0° C. for 10 minutes followed before the samples were centrifuged for 5 minutes at 8200 g. 100 μl of the supernatant) was finally assayed for radioactivity by liquid scintillationspectrometry, and the IC50 values were determined graphically and were converted to Ki values.

| Structure (SMILES) | inhibition at 1 µM [%] |
| --- | --- |
| COc1cc([C@@H]2[C@@H](NC(=O)C(C)(F)F)CC(=O)N2c2ccc3c(cnn3-c3ccc(=O)n(C)c3)c2)ccn1 [Example 42, 2,2-difluoro-N-((2R,3S)-2-(2-methoxypyridin-4-yl)-1-(1-(1-methyl-6-oxo-1,6-dihydropyridin-3-yl)-1H-indazol-5-yl)-5-oxopyrrolidin-3-yl)propanamide] | 60 to 85 |
| CC(F)(F)C(=O)N[C@H]1CC(=O)N(c2ccc3c(cnn3C3CCN(C(=O)C4CC4)CC3)c2)C1c1ccccc1 (stereo in doubt) [Example 35, trans-2,2-difluoro-N-(1-(1-(1-(cyclopropanecarbonyl)piperidin-4-yl)-1H-indazol-5-yl)-5-oxo-2-phenylpyrrolidin-3-yl)propanamide] | 60 to 85 |

The remaining lines, values ahead:

| inhibition at 1 µM [%] | Structure (SMILES) |
| --- | --- |
| 60 to 85 | Cn1cc(-n2ncc3cc(N4C(=O)C[C@H](NC(=O)C5(C)CC5)[C@H]4c4ccccc4)ccc32)ccc1=O [Example 26, 1-methyl-N-((2R,3S)-1-(1-(1-methyl-6-oxo-1,6-dihydropyridin-3-yl)-1H-indazol-5-yl)-5-oxo-2-phenylpyrrolidin-3-yl)cyclopropane-1-carboxamide] |
| 40 to 60 | Cn1cc(Cn2ncc3cc(N4C(=O)C[C@H](NC(=O)C(C)(F)F)C4c4ccccc4)ccc32)ccc1=O (stereo in doubt) [Example 34, trans-2,2-difluoro-N-(1-(1-((1-methyl-6-oxo-1,6-dihydropyridin-3-yl)methyl)-1H-indazol-5-yl)-5-oxo-2-phenylpyrrolidin-3-yl)propanamide] |
| > 85 | Cn1cc(-n2ncc3cc(N4C(=O)C[C@H](NC(=O)C(C)(F)F)[C@H]4c4cccc(F)c4)ccc32)ccc1=O [Example 5, 2,2-difluoro-N-((2R,3S)-2-(3-fluorophenyl)-1-(1-(1-methyl-6-oxo-1,6-dihydropyridin-3-yl)-1H-indazol-5-yl)-5-oxopyrrolidin-3-yl)propanamide] |
| 60 to 85 | Cn1cc(-n2ncc3cc(N4C(=O)C[C@H](NC(=O)[C@H]5CCCO5)[C@H]4c4ccccc4)ccc32)ccc1=O [Example 48, (R)—N-[(2R,3S)-1-[1-(1-methyl-6-oxo-3-pyridyl)indazol-5-yl]-5-oxo-2-phenyl-pyrrolidin-3-yl]tetrahydrofuran-2-carboxamide] |
| 60 to 85 | Cn1cc(-n2ncc3cc(N4C(=O)C[C@H](NC(=O)c5cocn5)[C@H]4c4ccccc4)ccc32)ccc1=O [Example 50, N-[(2R,3S)-1-[1-(1-methyl-6-oxo-3-pyridyl)indazol-5-yl]-5-oxo-2-phenyl-pyrrolidin-3-yl]oxazole-4-carboxamide] |
| 60 to 85 | Cn1cc(-n2ncc3cc(N4C(=O)C[C@H](NC(=O)c5cscn5)[C@H]4c4ccccc4)ccc32)ccc1=O [Example 44, N-[(2R,3S)-1-[1-(1-methyl-6-oxo-3-pyridyl)indazol-5-yl]-5-oxo-2-phenyl-pyrrolidin-3-yl]thiazole-4-carboxamide] |
| 40 to 60 | Cc1ccccc1[C@@H]1[C@@H](NC(=O)C2CC2)CC(=O)N1c1ccc2c(cnn2-c2ccc(=O)n(C)c2)c1 [Example 41, N-((2R,3S)-1-(1-(1-methyl-6-oxo-1,6-dihydropyridin-3-yl)-1H-indazol-5-yl)-5-oxo-2-(o-tolyl)pyrrolidin-3-yl)cyclopropanecarboxamide] |
| 60 to 85 | COc1ccc(-n2ncc3cc(N4C(=O)C[C@H](NC(=O)C(C)(F)F)C4c4ccccc4)ccc32)cn1 (stereo in doubt) [Example 22, trans-2,2-difluoro-N-(1-(1-(6-methoxypyridin-3-yl)-1H-indazol-5-yl)-5-oxo-2-phenylpyrrolidin-3-yl)propanamide] |
| > 85 | Cn1cc(-n2ncc3cc(N4C(=O)C[C@H](NC(=O)c5ncco5)[C@H]4c4ccccc4)ccc32)ccc1=O [Example 49, N-[(2R,3S)-1-[1-(1-methyl-6-oxo-3-pyridyl)indazol-5-yl]-5-oxo-2-phenyl-pyrrolidin-3-yl]oxazole-2-carboxamide] |
| > 85 | Cn1cc(-n2ncc3cc(N4C(=O)C[C@H](NC(=O)C(C)(F)F)[C@H]4c4ccccc4F)ccc32)ccc1=O [Example 6, 2,2-difluoro-N-((2R,3S)-2-(2-fluorophenyl)-1-(1-(1-methyl-6-oxo-1,6-dihydropyridin-3-yl)-1H-indazol-5-yl)-5-oxopyrrolidin-3-yl)propanamide] |
| > 85 | Cc1nc(C(=O)N[C@H]2CC(=O)N(c3ccc4c(cnn4-c4ccc(=O)n(C)c4)c3)[C@@H]2c2ccccc2)no1 [Example 51, 5-methyl-N-[(2R,3S)-1-[1-(1-methyl-6-oxo-3-pyridyl)indazol-5-yl]-5-oxo-2-phenyl-pyrrolidin-3-yl]-1,2,4-oxadiazole-3-carboxamide] |

same assay, conditions: read-out: % inhibition hGR at 1 μM

| Structure (SMILES) | inhibition at 1 µM [%] |
| --- | --- |
| CC(F)(F)C(=O)N[C@H]1CC(=O)N(c2ccc3c(cnn3-c3ccc(F)cn3)c2)C1c1ccccc1 (stereo in doubt) [Example 9, trans-2,2-difluoro-N-(1-(1-(5-fluoropyridin-2-yl)-1H-indazol-5-yl)-5-oxo-2-phenylpyrrolidin-3-yl)propanamide] | > 85 |
| CC(F)(F)C(=O)N[C@H]1CC(=O)N(c2ccc3c(cnn3-c3ncc(F)cn3)c2)C1c1ccccc1 (stereo in doubt) [Example 47, N-(trans-1-(1-(5-fluoropyrimidin-2-yl)-1H-indazol-5-yl)-5-oxo-2-phenylpyrrolidin-3-yl)-2,2-difluoropropanamide] | 60 to 85 |
| COc1cc(-n2ncc3cc(N4C(=O)C[C@H](NC(=O)C(C)(F)F)C4c4ccccc4)ccc32)ccn1 (stereo in doubt) [Example 27, trans-2,2-difluoro-N-(1-(1-(2-methoxypyridin-4-yl)-1H-indazol-5-yl)-5-oxo-2-phenylpyrrolidin-3-yl)propanamide] | 60 to 85 |
| Cn1cc(-n2ncc3cc(N4C(=O)C[C@H](NC(=O)C(C)(F)F)C4c4ccccc4)ccc32)cn1 (stereo in doubt) [Example 46, N-(trans-1-(1-(1-methyl-1H-pyrazol-4-yl)-1H-indazol-5-yl)-5-oxo-2-phenylpyrrolidin-3-yl)-2,2-difluoropropanamide] | > 85 |
| Cn1cc(-n2ncc3cc(N4C(=O)C[C@H](NC(=O)C(C)(F)F)[C@H]4c4ccccc4)ccc32)ccc1=O [Example 4, 2,2-difluoro-N-((2R,3S)-1-(1-(1-methyl-6-oxo-1,6-dihydropyridin-3-yl)-1H-indazol-5-yl)-5-oxo-2-phenylpyrrolidin-3-yl)propanamide] | > 85 |
| CC(F)(F)C(=O)N[C@H]1CC(=O)N(c2ccc3c(cnn3-c3ccncc3)c2)C1c1ccccc1 (stereo in doubt) [Example 23, trans-2,2-difluoro-N-(5-oxo-2-phenyl-1-(1-(pyridin-4-yl)-1H-indazol-5-yl)pyrrolidin-3-yl)propanamide] | > 85 |
| Cc1cc(-n2ncc3cc(N4C(=O)C[C@H](NC(=O)C(C)(F)F)C4c4ccccc4)ccc32)ccn1 (stereo in doubt) [Example 25, trans-2,2-difluoro-N-(1-(1-(2-methylpyridin-4-yl)-1H-indazol-5-yl)-5-oxo-2-phenylpyrrolidin-3-yl)propanamide] | > 85 |
